In data set [1] the test system is E. coli DH10B pBCSK SHV-1. The data set can be described thus: Disc diffusion assay, SHV-1 expressing strain. It is filed as cell-based, Escherichia coli. Conditions: for zone size of cephalothin combined with the inhibitor: strain expressing SHV-1. For orientation: Agar diffusion results depend on both activity and mobility in agar.
Data set [2] has as its system E. coli DH10B pBCSK control. The data set can be described thus: Disc diffusion assay, control strain. It is filed as cell-based, Escherichia coli. Conditions: cephalothin 30 μg and 30 μg of each inhibitor, 37 °C, 18 h.
The next data set concerns class A or C enzymes. As to conditions: ref unpublished screening work, Bethel and Bonomo; cited from earlier work.
Data set [3] in a line: Base hydrolysis in 1 M NaOH followed by Raman spectroscopy. It is filed as physicochemical.
For another data set, the target named is T1, SHV-1 (Klebsiella pneumoniae, UniProt P0AD64).
T1 sequence (P0AD64 22-286): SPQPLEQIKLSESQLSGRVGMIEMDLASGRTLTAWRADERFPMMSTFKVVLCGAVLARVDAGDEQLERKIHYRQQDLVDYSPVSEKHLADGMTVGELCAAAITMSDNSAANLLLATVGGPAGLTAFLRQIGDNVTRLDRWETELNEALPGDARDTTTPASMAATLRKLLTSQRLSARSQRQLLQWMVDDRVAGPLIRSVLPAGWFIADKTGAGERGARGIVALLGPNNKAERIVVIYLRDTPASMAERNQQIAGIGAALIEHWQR
As to conditions: SHV-1, E/I = 1:10, nitrocefin assay.

Regarding `CC(=O)OCC1=C(C(=O)O)N2C(=O)[C@@H](NC(=O)Cc3cccs3)[C@H]2SC1` [cephalothin], the zone diameter in data set [1] (cephalothin 30 μg and 30 μg of each inhibitor, 37 °C, 18 h) came to 6 mm; in data set [2], 34 mm.
Take `CC1(C)[C@H](C(=O)O)N2C(=O)[C@@H](CO)[C@H]2S1(=O)=O` [6α-(hydroxymethyl)penicillanic acid sulfone]: in the data set on class A or C enzymes, the “inhibition in the IC50 or MIC assays” value is recorded as “did not show any inhibition”.
In the case of `C[C@]1(Cn2ccnn2)[C@H](C(=O)O)N2C(=O)C[C@H]2S1(=O)=O` [tazobactam], the “zone size of cephalothin combined with the inhibitor” value in data set [1] came out at 16 mm.
As for `CC1(C)[C@H](C(=O)O)N2C(=O)C[C@H]2S1(=O)=O` [sulbactam], in data set [3] (1 M NaOH, Raman, all imine converted), the “time for conversion of imine to cis-enamine” value is on record as 60 min. For the same compound, the “time to hydrolysis to imine (lactam ring opening, imine maximum)” value in data set [3] (1 M NaOH, room temperature, Raman) is given as “less than 3 min”. Further, the “time for iminium ion conversion to cis-enamine” value in data set [3] (base hydrolysis, as stated in abstract) is reported as 1 h. Further, the “zone size of cephalothin combined with the inhibitor” value in data set [1] is given as 10 mm. The “enzyme activity against nitrocefin after reaction with inhibitor” value at SHV-1 was “remained fully active”.

The record behind these values is paper PMC4310624 (Biochemistry, 2014).
